Assay results reported in the NIST ThermoML archive (doi:10.1021/acs.jced.7b00694).
± gives the expanded uncertainty stated by the source.

Assay: xn = mol fraction of the nth substance listed
Conditions: Gas, Buoyancy - hydrostatic balance with magnetic suspension - one sinker

[HH] [hydrogen] + N#N
Conditions	mass density [kg/m3]
274.99 K, 14000 kPa, x2 = 0.95	162.308 ± 0.071
274.99 K, 14998 kPa, x2 = 0.5001	91.878 ± 0.046
274.99 K, 15002 kPa, x2 = 0.95	173.076 ± 0.072
274.99 K, 16011 kPa, x2 = 0.95	183.72 ± 0.072
274.99 K, 17006 kPa, x2 = 0.95	194.006 ± 0.072
275 K, 13999 kPa, x2 = 0.9	153.123 ± 0.068
275 K, 15005 kPa, x2 = 0.9	163.298 ± 0.068
275 K, 15997 kPa, x2 = 0.5001	97.397 ± 0.046
275 K, 16004 kPa, x2 = 0.9	173.22 ± 0.069
275 K, 17000 kPa, x2 = 0.5001	102.851 ± 0.046
275 K, 17005 kPa, x2 = 0.9	182.969 ± 0.069
275 K, 17996 kPa, x2 = 0.5001	108.187 ± 0.047
275 K, 18001 kPa, x2 = 0.95	204.074 ± 0.072
275 K, 18013 kPa, x2 = 0.9	192.591 ± 0.069
275 K, 19000 kPa, x2 = 0.5001	113.476 ± 0.047
275 K, 19012 kPa, x2 = 0.9	201.918 ± 0.07
275 K, 19017 kPa, x2 = 0.95	214.131 ± 0.073
275 K, 19574 kPa, x2 = 0.5001	116.461 ± 0.051
275 K, 19891 kPa, x2 = 0.9	209.964 ± 0.073
275 K, 20152 kPa, x2 = 0.95	225.084 ± 0.077
299.93 K, 997 kPa, x2 = 0.95	10.683 ± 0.059
299.93 K, 998 kPa, x2 = 0.9	10.171 ± 0.056
299.93 K, 1999 kPa, x2 = 0.9	20.375 ± 0.057
299.93 K, 2984 kPa, x2 = 0.9	30.399 ± 0.058
299.93 K, 3997 kPa, x2 = 0.9	40.678 ± 0.058
299.93 K, 4997 kPa, x2 = 0.9	50.784 ± 0.059
299.93 K, 5997 kPa, x2 = 0.9	60.838 ± 0.059
299.93 K, 6998 kPa, x2 = 0.9	70.842 ± 0.059
299.93 K, 7998 kPa, x2 = 0.9	80.755 ± 0.06
299.93 K, 8998 kPa, x2 = 0.9	90.589 ± 0.061
299.93 K, 9998 kPa, x2 = 0.9	100.316 ± 0.061
299.93 K, 10998 kPa, x2 = 0.9	109.939 ± 0.061
299.93 K, 11999 kPa, x2 = 0.9	119.448 ± 0.062
299.93 K, 12999 kPa, x2 = 0.9	128.823 ± 0.062
299.93 K, 14000 kPa, x2 = 0.9	138.079 ± 0.063
299.93 K, 14998 kPa, x2 = 0.9	147.162 ± 0.063
299.93 K, 16001 kPa, x2 = 0.9	156.149 ± 0.063
299.93 K, 17004 kPa, x2 = 0.9	164.981 ± 0.064
299.93 K, 18004 kPa, x2 = 0.9	173.629 ± 0.064
299.93 K, 19002 kPa, x2 = 0.9	182.11 ± 0.066
299.93 K, 19557 kPa, x2 = 0.9	186.761 ± 0.074
299.94 K, 998 kPa, x2 = 0.5001	5.984 ± 0.038
299.94 K, 1998 kPa, x2 = 0.5001	11.937 ± 0.039
299.94 K, 1998 kPa, x2 = 0.95	21.43 ± 0.06
299.94 K, 2984 kPa, x2 = 0.95	32.013 ± 0.06
299.94 K, 2999 kPa, x2 = 0.5001	17.846 ± 0.039
299.94 K, 3997 kPa, x2 = 0.95	42.862 ± 0.061
299.94 K, 3998 kPa, x2 = 0.5001	23.691 ± 0.039
299.94 K, 4997 kPa, x2 = 0.95	53.549 ± 0.061
299.94 K, 4998 kPa, x2 = 0.5001	29.485 ± 0.04
299.94 K, 5998 kPa, x2 = 0.5001	35.223 ± 0.04
299.94 K, 5998 kPa, x2 = 0.95	64.189 ± 0.062
299.94 K, 6997 kPa, x2 = 0.5001	40.897 ± 0.04
299.94 K, 6999 kPa, x2 = 0.95	74.769 ± 0.062
299.94 K, 7997 kPa, x2 = 0.5001	46.51 ± 0.041
299.94 K, 7999 kPa, x2 = 0.95	85.271 ± 0.063
299.94 K, 8996 kPa, x2 = 0.5001	52.057 ± 0.041
299.94 K, 9000 kPa, x2 = 0.95	95.695 ± 0.063
299.94 K, 9998 kPa, x2 = 0.5001	57.555 ± 0.041
299.94 K, 10000 kPa, x2 = 0.95	106.004 ± 0.064
299.94 K, 10997 kPa, x2 = 0.5001	62.968 ± 0.041
299.94 K, 10999 kPa, x2 = 0.95	116.189 ± 0.064
299.94 K, 11998 kPa, x2 = 0.5001	68.317 ± 0.042
299.94 K, 12000 kPa, x2 = 0.95	126.269 ± 0.065
299.94 K, 12994 kPa, x2 = 0.5001	73.577 ± 0.043
299.94 K, 13002 kPa, x2 = 0.95	136.232 ± 0.065
299.94 K, 13996 kPa, x2 = 0.5001	78.8 ± 0.043
299.94 K, 14000 kPa, x2 = 0.95	146.008 ± 0.066
299.94 K, 14998 kPa, x2 = 0.5001	83.948 ± 0.043
299.94 K, 14999 kPa, x2 = 0.95	155.65 ± 0.066
299.94 K, 15992 kPa, x2 = 0.5001	88.984 ± 0.043
299.94 K, 16000 kPa, x2 = 0.95	165.148 ± 0.066
299.94 K, 16992 kPa, x2 = 0.5001	93.982 ± 0.044
299.94 K, 17005 kPa, x2 = 0.95	174.51 ± 0.067
299.94 K, 17997 kPa, x2 = 0.5001	98.934 ± 0.044
299.94 K, 18000 kPa, x2 = 0.95	183.626 ± 0.067
299.94 K, 18998 kPa, x2 = 0.5001	103.792 ± 0.045
299.94 K, 19003 kPa, x2 = 0.95	192.638 ± 0.068
299.94 K, 19854 kPa, x2 = 0.5001	107.886 ± 0.046
299.94 K, 19889 kPa, x2 = 0.95	200.449 ± 0.075
324.94 K, 12002 kPa, x2 = 0.95	115.15 ± 0.06
324.94 K, 14997 kPa, x2 = 0.95	141.813 ± 0.061
324.94 K, 15998 kPa, x2 = 0.95	150.466 ± 0.062
324.94 K, 16993 kPa, x2 = 0.95	158.937 ± 0.062
324.94 K, 17986 kPa, x2 = 0.95	167.256 ± 0.062
324.94 K, 19001 kPa, x2 = 0.95	175.603 ± 0.063
324.94 K, 19731 kPa, x2 = 0.9	171.908 ± 0.065
324.94 K, 19880 kPa, x2 = 0.95	182.728 ± 0.068
324.95 K, 998 kPa, x2 = 0.5001	5.527 ± 0.036
324.95 K, 998 kPa, x2 = 0.9	9.371 ± 0.053
324.95 K, 998 kPa, x2 = 0.95	9.855 ± 0.055
324.95 K, 1998 kPa, x2 = 0.5001	11.018 ± 0.037
324.95 K, 1998 kPa, x2 = 0.95	19.717 ± 0.055
324.95 K, 1999 kPa, x2 = 0.9	18.75 ± 0.053
324.95 K, 2983 kPa, x2 = 0.9	27.94 ± 0.054
324.95 K, 2984 kPa, x2 = 0.95	29.414 ± 0.056
324.95 K, 2996 kPa, x2 = 0.5001	16.446 ± 0.037
324.95 K, 3997 kPa, x2 = 0.95	39.338 ± 0.057
324.95 K, 3999 kPa, x2 = 0.5001	21.856 ± 0.038
324.95 K, 3999 kPa, x2 = 0.9	37.374 ± 0.054
